Measured values from PMC8745253, “Affinity and Specificity for Binding to Glycosaminoglycans Can Be Tuned by Adapting Peptide Length and Sequence” (International Journal of Molecular Sciences, 2021).

Legend:
[1] = cited from earlier work
Text: (§1) Chemokines are small proteins that have two main interaction partners: chemokine receptors, which are G protein-coupled receptors (GPCRs), and GAGs. The binding of chemokines to GAGs enables the formation of a chemokine concentration gradient, which is indispensable for leukocyte migration. Interfering with the interactions between GAGs and chemokines can be a useful therapeutic strategy to inhibit inflammation. The chemokine CXCL9 binds to CXCR3 and is characterized by a highly positively charged COOH-terminal tail. A CXCL9-derived peptide, CXCL9(74-103), consisting ...

[2] = system: cellular GAGs on HS+ (pgsB-618 clone 19) and HS- (pgsB-618 clone 16) CHO cells; assay: Binding of TAMRA-labeled peptides to cellular GAGs, flow cytometry; assay type: cell-based, Chinese hamster; settings: 0.24 nmol TAMRA-labeled peptide; for Binding to HS+ CHO cells compared with HS- CHO cells (MFI): 1 × 10^5 cells, 30 min on ice, Wilcoxon test; for Binding capacity for cellular GAGs (MFI ([HS+]–[HS−])), comparison of the peptides: n ≥ 7, Mann–Whitney test
Experimental: The binding of four different TAMRA-labeled peptides (KKAK-2mer, KKQK-3mer, KKKQQK-2mer and CXCL9(74-103)) to cellular GAGs on pgsB-618 clone 16 (HS^− CHO cells) and pgsB-618 clone 19 cells (HS^+ CHO cells) was assessed using flow cytometry. Since each peptide contains exactly one TAMRA-group connected to the N-terminus, this allows us to quantify the peptides by their fluorescence or absorbance.
(§2) First, the medium was discarded, the cells were washed with PBS and were detached with trypsin/EDTA at 37 °C. Subsequently, the cells were resuspended in medium and left at room temperature for 45 min, and afterwards on ice for 15 min. After centrifugation at 177 g and 4 °C for 7 min, the pellet was resuspended in PBS and the cells were kept on ice. For each condition, 1 × 10^5 cells in 100 μL PBS were used and 4.7% (v/v) FcR blocking reagent and 0.06% (v/v) Zombie Aqua fixable viability dye were added to the cells. Following incubation in the dark at room temperature for 20 min, a wash step with flow cytometry buffer was performed. Afterwards, 0.24 nmol TAMRA-labeled peptide was added to the cells. After incubation in the dark on ice for 30 min, a wash step with flow cytometry buffer was performed and, subsequently, the cells were fixed with 0.4% (v/v) formaldehyde in flow cytometry buffer and kept at 4 °C. Flow cytometric analysis was performed within the following 24 h using a BD LSRFortessa X-20 flow cytometer (BD Biosciences; Franklin Lakes, NJ, USA), and the results were analyzed using FlowJo software (BD Biosciences).
(§3) Flow cytometry data (Figure 7C and Figure S2) are represented as median. […] In the next step, either a Mann–Whitney test (for unpaired data) or a Wilcoxon test (for paired data) was used to compare the groups. Statistical analysis was performed using GraphPad Prism 8.3.0 software (GraphPad Software; San Diego, CA, USA).

CXCR3 = settings: cited from earlier work
Text: as §1

[3] = system: cellular GAGs on HS+ and HS- CHO cells; assay: Binding of TAMRA-labeled peptides to cellular GAGs in the presence of added soluble GAGs, flow cytometry; assay type: cell-based, Chinese hamster; settings: versus no GAG, Kruskal–Wallis test, n ≥ 6; for Effect of added soluble HA on binding of the peptide to cellular GAGs (MFI ([HS+]–[HS−])): 0.24 nmol peptide with 0.03-3 μg HA (70–120 kDa); for Effect of added soluble HS on binding of the peptide to cellular GAGs (MFI ([HS+]–[HS−])): 0.24 nmol peptide with 0.03-3 μg HS; for Effect of added soluble heparin on binding of the peptide to cellular GAGs (MFI ([HS+]–[HS−])): 0.24 nmol peptide with 0.03-3 μg heparin
Experimental: as §2
Similarly, the binding of three TAMRA-labeled peptides (KKQK-3mer, KKKQQK-2mer and CXCL9(74-103)) to cellular GAGs on pgsB-618 clone 16 (HS^− CHO cells) and pgsB-618 clone 19 cells (HS^+ CHO cells) in the presence of added GAGs was assessed using flow cytometry. In this experiment, different doses (0.03, 0.1, 0.3, 1 or 3 μg) of heparin (heparin low in calcium; Iduron; Cheshire, UK), HS (GAG HS01 BN1; Iduron; Cheshire, UK) or HA (70–120 kDa; HA sodium salt 96144; Sigma-Aldrich; St. Louis, MO, USA) were added to the cells, simultaneously with 0.24 nmol of TAMRA-labeled peptide (vide supra).
as §3

[4] = cited from earlier work; remark: listed apart in the source
Text: No significant difference in affinity for HS was detected between the long (KKKQQK) and short (KKQK) GAG-binding motifs (Figure 2). […] This is consistent with the report that peptides containing multiple copies of the GAG-binding motifs XBBXBX and XBBBXXBX had higher affinity for heparin [30]. It is important to point out that CXCL9(74-103) had the ...

For `CC(=O)NC(CCCNC(=N)N)C(N)=O` (stereo not drawn) [acetyl-Arg-amide], the “Tighter binding to heparin than the corresponding acetyl-Lys-amide” value [1] is listed as “approximately 2.5 times”.

In the case of * KKAKASASKKAKTT [KKAK-2mer], the “Binding to HS+ CHO cells compared with HS- CHO cells (MFI)” value [2] is reported as “bound significantly better to HS^+ CHO cells” and the “Binding capacity for cellular GAGs (MFI ([HS+]–[HS−])), comparison of the peptides” value (from here on “Binding capacity for cellular GAGs”) [2] is reported as “lowest”.

For “* KKKQKNGKKHQKKKVLKVRKSQRSRQKKTT [CXCL9(74-103), chemokine-derived peptide, the 30 COOH-terminal amino acids of the chemokine CXCL9, TAMRA-labeled]”, the “Binding to and signaling through CXCR3” value (CXCR3) is listed as “lacks the capacity to bind to, and signal through, CXCR3”, the “Binding to HS+ CHO cells compared with HS- CHO cells (MFI)” value [2] is listed as “bound significantly better to HS^+ CHO cells” and the “Binding capacity for cellular GAGs” value [2] is listed as “significantly higher (p < 0.0001) compared with that of the three other peptides”. The “Effect of added soluble HA on binding of the peptide to cellular GAGs (MFI ([HS+]–[HS−]))” value (from here on “Effect of added soluble HA”) [3] was “no significant differences”, the “Effect of added soluble HS on binding of the peptide to cellular GAGs (MFI ([HS+]–[HS−]))” value (“Effect of added soluble HS” for short) [3] was “statistically significant reduction of binding” and the “Effect of added soluble heparin on binding of the peptide to cellular GAGs (MFI ([HS+]–[HS−]))” value (“Effect of added soluble heparin” for short) [3] was “statistically significant reduction of binding”.

In the case of * KKKQQKQSQSKKKQQKTT [KKKQQK-2mer], the “Binding to HS+ CHO cells compared with HS- CHO cells (MFI)” value [2] is reported as “bound significantly better to HS^+ CHO cells”, the “Binding capacity for cellular GAGs” value [2] is reported as “significantly higher (p < 0.05) in comparison with the binding capacity of the KKAK-2mer” and the “Effect of added soluble HA” value [3] is reported as “no significant differences”. The “Effect of added soluble HS” value [3] was “no significant differences” and the “Effect of added soluble heparin” value [3] was “no significant differences”.

For * KKQKQSQSKKQKQSQSKKQKTT [KKQK-3mer], the “Binding to HS+ CHO cells compared with HS- CHO cells (MFI)” value [2] was “bound significantly better to HS^+ CHO cells”, the “Binding capacity for cellular GAGs” value [2] was “significantly higher (p < 0.05) in comparison with the binding capacity of the KKAK-2mer” and the “Effect of added soluble HA” value [3] was “no significant differences”. The “Effect of added soluble HS” value [3] was “no significant differences” and the “Effect of added soluble heparin” value [3] was “no significant differences”.

For “AAARRARAAAARAKA [modified serglycin peptide in which Ala residues replaced all non-basic amino acids]”, the “Decrease in heparin-binding affinity compared with native peptide YPARRARYQWVRCKP” value ([4]; Ala residues replaced all non-basic amino acids) is given as 350 fold.

In the case of YPARRARYQWVRCKP, the Heparin-binding affinity ([4]; fragment of native mouse serglycin core protein with BBXB motif) is given as “significant heparin-binding affinity”.
